Data reported in patent publication US20240226066A1, “CARDIOPROTECTION BY AUTOPHAGY INDUCTION AND METABOLIC REPROGRAMMING” (UNIVERSITE PARIS-SACLAY, priority 2021, published 2024).

Experiments:
[1] = system: A549 lung cancer cell line; assay: Influence of hits on growth of A549 cancer cells (total LDH after lysis); assay type: cell-based; conditions: 48 h
Protocol: The cells were cultured for 6 h in the presence or absence of the hits, and then for 42 h. Finally, the cells were lysed with lysis buffer and the amount of LDH was measured to evaluate the total cell growth.
A colorimetric assay was used to measure lactate dehydrogenase (LDH), a cytosolic enzyme which is released during permeabilization of the plasma membrane (Promega G1780). The assay was performed using cell culture supernatants obtained from H9C2 or RNVC (rat neonatal ventricular myocyte) cells and lysis buffer (LB) was used as a positive control for total cell lysis. The LDH release was measured by absorbance reading at 490 nm (Infinite spectrofluorimeter, Tecan).
The effect of the compounds was then evaluated on primary rat neonatal ventricular cardiomyocytes (RNVCs) using the LDH test and propidium iodide staining. […] The absence of proliferative effects of the compounds was also evaluated on the A549 lung cancer cell line for 48 h (FIG. 2C).

BAX = assay: Western blot of BAX expression in RNVCs; assay type: cell-based, rat; conditions: 6 h treatment
Protocol: Levels of protein expression of BCL-2 (FIG. 3A and FIG. 3B) BXL-XL (FIG. 3C) and BAX (FIG. 3C), in the RNVCs after 6 h of treatment (FIG. 3A, FIG. 3C, FIG. 3D) or 24 h (FIG. 3B). Co., untreated cell control. Each experiment was reproduced at least three times. Representative western blotting images and quantification of three independent experiments are presented as mean±SEM with single-factor ANOVA, with multiple Sidak comparisons. *, p<0.05 with respect to DMSO.
The H9C2 cells and RNVCs were detached in LB containing: 50 mM Tris, 150 mM NaCl, 1 mM EDTA, 0.5% deoxycholate, 1% Triton X 100, 0.1% SDS (pH 8.0). The cells were collected and placed on ice for 30 minutes. The cells were then centrifuged at 2000 g for 20 minutes at for 4° C. The supernatant was transferred to a new tube and stored on ice. The protein concentration was determined by BCA assay. The protein samples were diluted with sample buffer (2× Laemmli, Sigma), mixed, and heated for 5 minutes at 95° C. […] The images were recorded with a gel imaging system (Bio Rad). […]

RNVCs = assay: Mitochondrial network and cell volume by confocal microscopy (Mitotracker, calcein-AM, IMARIS); assay type: cell-based, rat; conditions: 1 and 10 μM, 6 h
Protocol: FIG. 6. Effects on mitochondrial dynamics by fluorescence microscopy The RNVCs were treated with 1 μM hits (FIG. 6A) and 10 μM hits (FIG. 6B) for 6 h and the mitochondrial network was stained with 200 nM of Mitotracker. The mitochondrial network and individual mitochondria were then analyzed using a Leica confocal microscope and IMARIS software. Data are presented as mean±SEM with single-factor ANOVA, and multiple Sidak comparisons. *, p<0.05, **, p<0.01, ***, p<0.001 with respect to DMSO.
FIG. 11: following the treatment of the RNVCs with the compounds as indicated, the cell volume was stained with 4 μM of calcein-AM. The cell volume was then analyzed using the IMARIS software.
Confocal microscopy. On day 0, 4×10^5 neonatal cardiomyocytes were plated overnight on laminin-coated 35 mm culture dishes (10 μg/ml). On day 1, the cells were treated with various compounds at 1 or 10 μM for 6 hours. The cells were incubated with Mitotracker Red 580 at 200 nM for 20 minutes at 37° C., then 4 μM of calcein (Calcein AM, Life Technologies, St Aubin, France) for 10 minutes at 37° C. The images were acquired with a Leica confocal microscope (SP5) (Mannheim, Germany). The mitochondrial network and the 3D model of cell volume were reconstructed using the IMARIS software (Bitplane Company, Zurich, Switzerland); therefore the cell volume, mitochondrial number and volume were analyzed.
Due to the importance of mitochondria and reactive oxygen species (ROS) levels in the fate of cardiomyocyte cells, the hypothesis that the compounds could impact the mitochondrial network was explored. Following treatment of the RNVCs with the compounds tested, the mitochondrial network was stained with 200 nM of Mitotracker and the cell volume with 4 μM of calcein-AM. Thus, the mitochondrial network and the individual mitochondria were then analyzed using the IMARIS software.

O=C1NC(c2ccccc2)=N/C1=C\c1cc2ccccc2c2ccccc12 [SG6163F]
effect on A549 cell growth [1]: no proliferative effect
expression of pro-apoptotic BAX protein (BAX): significantly decreased
number of mitochondria (RNVCs): increased
total mitochondrial volume per cell (RNVCs): increased

C[C@]12CC[C@H](O)C[C@H]1CC[C@@H]1[C@@H]2CC[C@]2(C)[C@@H](C3=CC(=O)OC3)CC[C@]12O [digitoxigenin]
effect on A549 cell growth [1]: significantly reduced cell growth and induced cell death
number of mitochondria (RNVCs): increased
total mitochondrial volume per cell (RNVCs): increased

C[C@H]1O[C@@H](O[C@H]2[C@@H](O)C[C@H](O[C@H]3[C@@H](O)CC(O[C@H]4CC[C@@]5(C)[C@H](CC[C@@H]6[C@@H]5C[C@@H](O)[C@]5(C)[C@@H](C7=CC(=O)OC7)CC[C@]65O)C4)O[C@@H]3C)O[C@@H]2C)C[C@H](O)[C@@H]1O (some centres unmarked) [digoxin]
effect on A549 cell growth [1]: significantly reduced cell growth and induced cell death
expression of pro-apoptotic BAX protein (BAX): significantly decreased
number of mitochondria (RNVCs): increased
total mitochondrial volume per cell (RNVCs): increased
